Patent US20160220569A1, “CDK4/6 Inhibitor Dosage Formulations For The Protection Of Hematopoietic Stem And Progenitor Cells During Chemotherapy” (G1 Therapeutics, Inc., priority 2015, published 2016)
Like-named read-outs stand apart in the source and are kept apart here.

Experiment: 14-day oral gavage toxicokinetic study in rats
Type: in vivo
Conditions: rat, plasma, po; for concentration at 0.5 h / concentration at 1 h / concentration at 2 h / concentration at 4 h / concentration at 8 h / concentration at 12 h / concentration at 24 h / concentration at […]: rats; for concentration at 1 h: Day 14, 1 h; for concentration at 24 h: Day 14, 24 h; for half-life: read-out: t½ (converted)
Method: Plasma was obtained from blood samples collected from rats in a composite sampling scheme, with 3 samples collected per sex, per dose, at each target collection time, as illustrated in Table 21 to Table 25. Samples were collected from the vehicle control group on Day 1 and Day 14 at 3 hour after administration. […] Blood samples were collected in tubes containing K3EDTA as an anticoagulant and placed on ice until processed to plasma via centrifugation. Samples were stored frozen at −80° C. until shipment to the bioanalytical laboratory for analysis.
The following parameters were determined:
Cmax: Maximum observed plasma concentration (ng/mL).
A value of 0 ng/mL was assigned to all values below the lower limit of quantitation (BLQ, <10.0 ng/mL).
AUC(0-inf): Area under the plasma concentration vs. time curve extrapolated from 0 to infinity (ng*h/mL), calculated as AUC(0-t)+AUC(t-inf) where AUC(t-inf) is calculated as last measurable concentration (CLast) divided by ke, where ke is the elimination rate constant determined by linear regression of the last three analytically measured points on the log plasma concentration vs. time curve. The selection criteria of the data points for inclusion in the calculation of ke required that at least three data points representing the terminal phase (after Tmax) were regressed and that R2≧0.850 when rounded.
CL: Clearance (L/h/kg), calculated as the dose divided by AUC(0-t).
Vd: Volume of distribution (L/kg), calculated as dose divided by the product of ke and AUC(0-inf).
Vdss: Steady state volume of distribution (L/kg), calculated as clearance […] mean residence time, where mean residence time is calculated as the area under the first moment curve divided by AUC(0-t).
t½: Elimination half-life (h), calculated as ln(2)/ke, where ke is the elimination rate constant determined by linear regression. Half-life was defined as not determined if regression criteria (specified in AUC(0-inf) above) were not met.
Cmax/Dose: Normalized Cmax, calculated as Cmax divided by total dose.
AUC/Dose: Normalized AUC, calculated as AUC(0-t) divided by total dose.
ii. Statistical Analysis Mean and standard deviation (SD) were calculated in Watson. Values of BLQ were assigned a value of 0 ng/mL for mean calculations. Concentration values and derived TK parameters were reported to three significant figures.

[1] = both sexes, 15 mg/kg, Mean Compound 1 Plasma Concentration, oral 15 mg/kg, Overall
[2] = both sexes, 15 mg/kg, oral 15 mg/kg, Study Day 1, Overall
[3] = both sexes, 15 mg/kg, oral 15 mg/kg, Study Day 14, Overall
[4] = both sexes, 30 mg/kg, Mean Compound 1 Plasma Concentration, oral 30 mg/kg, Overall
[5] = both sexes, 30 mg/kg, oral 30 mg/kg, Study Day 1, Overall
[6] = both sexes, 30 mg/kg, oral 30 mg/kg, Study Day 14, Overall
[7] = female, 2 mg/kg, Compound 1 Plasma Concentration, Female, daily oral 2 mg/kg (Group 7), individual animals

CN1CCN(c2ccc(Nc3ncc4cc5n(c4n3)C3(CCCCC3)CNC5=O)nc2)CC1 [Compound 1, 2′-((5-(4-methylpiperazin-1-yl)pyridin-2-yl)amino)-7′,8′-dihydro-6′H-spiro[cyclohexane-1,9′-pyrazino[1′,2′:1,5]pyrrolo[2,3-d]pyrimidin]-6′-one] showed a concentration at 0.5 h (both sexes, 15 mg/kg, Mean Compound 1 Plasma Concentration, oral 15 mg/kg, Day 14, 0.5 h, Overall) of 955 ng/mL, a concentration at 1 h [1] of 1150 ng/mL and a concentration at 2 h (both sexes, 15 mg/kg, Mean Compound 1 Plasma Concentration, oral 15 mg/kg, Day 14, 2 h, Overall) of 1410 ng/mL. For the same compound, the concentration at 4 h (both sexes, 15 mg/kg, Mean Compound 1 Plasma Concentration, oral 15 mg/kg, Day 14, 4 h, Overall) was 1330 ng/mL, the concentration at 8 h (both sexes, 15 mg/kg, Mean Compound 1 Plasma Concentration, oral 15 mg/kg, Day 14, 8 h, Overall) was 1070 ng/mL and the concentration at 12 h (both sexes, 15 mg/kg, Mean Compound 1 Plasma Concentration, oral 15 mg/kg, Day 14, 12 h, Overall) was 715 ng/mL. It also gave a concentration at 24 h [1] of 95.3 ng/mL, an AUC(0-inf) [2] of 19900 ng·h/mL and an AUC(0-t) [2] of 19400 ng·h/mL. It also gave a Cmax [2] of 1490 ng/mL, a Tmax [2] of 2 h and a half-life [2] of 4.05 h. It also gave an AUC(0-inf) [3] of 18700 ng·h/mL, an AUC(0-t) [3] of 18100 ng·h/mL and a Cmax [3] of 1410 ng/mL. For the same compound, the Tmax [3] was 2 h, the half-life [3] was 4.47 h and the concentration at 0.5 h (both sexes, 30 mg/kg, Mean Compound 1 Plasma Concentration, oral 30 mg/kg, Day 1, 0.5 h, Overall) was 1790 ng/mL. It also gave a concentration at 2 h (both sexes, 30 mg/kg, Mean Compound 1 Plasma Concentration, oral 30 mg/kg, Day 1, 2 h, Overall) of 2360 ng/mL, a concentration at 4 h (both sexes, 30 mg/kg, Mean Compound 1 Plasma Concentration, oral 30 mg/kg, Day 1, 4 h, Overall) of 2380 ng/mL and a concentration at 8 h (both sexes, 30 mg/kg, Mean Compound 1 Plasma Concentration, oral 30 mg/kg, Day 1, 8 h, Overall) of 2160 ng/mL. It also gave a concentration at 12 h (both sexes, 30 mg/kg, Mean Compound 1 Plasma Concentration, oral 30 mg/kg, Day 1, 12 h, Overall) of 1800 ng/mL, a concentration at 0.5 h (both sexes, 30 mg/kg, Mean Compound 1 Plasma Concentration, oral 30 mg/kg, Day 14, 0.5 h, Overall) of 1270 ng/mL and a concentration at 1 h [4] of 1880 ng/mL. The concentration at 2 h (both sexes, 30 mg/kg, Mean Compound 1 Plasma Concentration, oral 30 mg/kg, Day 14, 2 h, Overall) was 1800 ng/mL, the concentration at 4 h (both sexes, 30 mg/kg, Mean Compound 1 Plasma Concentration, oral 30 mg/kg, Day 14, 4 h, Overall) was 2180 ng/mL and the concentration at 8 h (both sexes, 30 mg/kg, Mean Compound 1 Plasma Concentration, oral 30 mg/kg, Day 14, 8 h, Overall) was 1920 ng/mL. For the same compound, the concentration at 12 h (both sexes, 30 mg/kg, Mean Compound 1 Plasma Concentration, oral 30 mg/kg, Day 14, 12 h, Overall) was 1800 ng/mL, the concentration at 24 h [4] was 263 ng/mL and the AUC(0-inf) [5] was 39400 ng·h/mL. The AUC(0-t) [5] was 37500 ng·h/mL, the Cmax [5] was 2380 ng/mL and the Tmax [5] was 4 h. For the same compound, the half-life [5] was 4.98 h, the AUC(0-inf) [6] was 37000 ng·h/mL and the AUC(0-t) [6] was 35000 ng·h/mL. It also gave a Cmax [6] of 2180 ng/mL, a Tmax [6] of 4 h and a half-life [6] of 5.23 h. The concentration at […] (both, 2 mg/kg, Mean Compound 1 Plasma Concentration, oral 2 mg/kg, Day 14, […], Overall) was 4 ng/mL, the concentration at […] (both, 5 mg/kg, Mean Compound 1 Plasma Concentration, oral 5 mg/kg, Day 1, […], Overall) was 20.8 ng/mL and the concentration at […] (both, 5 mg/kg, Mean Compound 1 Plasma Concentration, oral 5 mg/kg, Day 14, […], Overall) was 49 ng/mL. It also gave a concentration at […] (both, 15 mg/kg, Mean Compound 1 Plasma Concentration, oral 15 mg/kg, Day 1, […], Overall) of 72.5 ng/mL, a concentration at […] (both, 15 mg/kg, Mean Compound 1 Plasma Concentration, oral 15 mg/kg, Day 14, […], Overall) of 119 ng/mL and a concentration at […] (both, 30 mg/kg, Mean Compound 1 Plasma Concentration, oral 30 mg/kg, Day 1, […], Overall) of 150 ng/mL. The concentration at […] (both, 30 mg/kg, Mean Compound 1 Plasma Concentration, oral 30 mg/kg, Day 14, […], Overall) was 372 ng/mL, the concentration at 0.5 h (female, 2 mg/kg, Compound 1 Plasma Concentration, Female, Day 1, 0.5 h, daily oral 2 mg/kg (Group 7), individual animals) was 139 ng/mL and the concentration at 2 h (female, 2 mg/kg, Compound 1 Plasma Concentration, Female, Day 1, 2 h, daily oral 2 mg/kg (Group 7), individual animals) was 216 ng/mL. It also gave a concentration at 12 h (female, 2 mg/kg, Compound 1 Plasma Concentration, Female, Day 1, 12 h, daily oral 2 mg/kg (Group 7), individual animals) of 91.8 ng/mL, a concentration at 0.5 h (female, 2 mg/kg, Compound 1 Plasma Concentration, Female, Day 14, 0.5 h, daily oral 2 mg/kg (Group 7), individual animals) of 192 ng/mL and a concentration at 1 h [7] of 108 ng/mL. For the same compound, the concentration at 2 h (female, 2 mg/kg, Compound 1 Plasma Concentration, Female, Day 14, 2 h, daily oral 2 mg/kg (Group 7), individual animals) was 224 ng/mL, the concentration at 4 h (female, 2 mg/kg, Compound 1 Plasma Concentration, Female, Day 14, 4 h, daily oral 2 mg/kg (Group 7), individual animals) was 129 ng/mL and the concentration at 24 h [7] was 21.6 ng/mL. It also gave a concentration at […] (female, 2 mg/kg, Compound 1 Plasma Concentration, Female, Day 14, […], daily oral 2 mg/kg (Group 7), individual animals) of 20 ng/mL.
